# Test results from patent US20160193216A1 (Nimbus Iris, Inc., priority 2012, published 2016).
# Target: T1, IRAK4 (Homo sapiens, UniProt Q9NWZ3)
# T1 sequence (Q9NWZ3 1-460): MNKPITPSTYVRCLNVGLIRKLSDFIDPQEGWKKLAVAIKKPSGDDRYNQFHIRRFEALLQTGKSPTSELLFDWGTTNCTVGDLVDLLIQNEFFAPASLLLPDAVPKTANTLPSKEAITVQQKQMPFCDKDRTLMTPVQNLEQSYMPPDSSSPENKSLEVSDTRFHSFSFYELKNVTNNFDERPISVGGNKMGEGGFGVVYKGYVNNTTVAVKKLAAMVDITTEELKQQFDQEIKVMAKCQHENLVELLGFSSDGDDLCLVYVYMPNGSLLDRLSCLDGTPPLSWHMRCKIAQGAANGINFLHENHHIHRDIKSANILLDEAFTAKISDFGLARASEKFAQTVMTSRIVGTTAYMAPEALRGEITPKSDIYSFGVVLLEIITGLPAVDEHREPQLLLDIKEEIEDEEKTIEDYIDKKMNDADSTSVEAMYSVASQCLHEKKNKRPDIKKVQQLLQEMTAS
# Test: IRAK-4 activity inhibition assay (Caliper)
# Type: biochemical
# Conditions: 37 μM ATP, 3.5 nM IRAK4
row,SMILES,IC50 [µM]
1,"C#CCOC[C@@H]1CCc2sc3ncnc(O[C@H]4CC[C@H](N(C)C)CC4)c3c21 [Compound I-48, N,N-dimethyl-4-[[(3R)-3-[(prop-2-yn-1-yloxy)methyl]-7-thia-9,11-diazatricyclo[6.4.0.0[2,6]]dodeca-1(8),2(6),9,11-tetraen-12-yl]oxy]cyclohexan-1-amine]",< 5
2,"CCCOC(=O)N1CCc2sc3ncnc(N[C@H]4CC[C@H](N5CCOCC5)CC4)c3c2C1 [Compound I-186, propyl 3-[[4-(morpholin-4-yl)cyclohexyl]amino]-8-thia-4,6, 12-triazatricyclo[7.4.0.0[2,7]]trideca-1(9),2(7),3,5-tetraene-12-carboxylate]",< 5
3,"O=C(O)[C@H]1CCc2sc3ncnc(O[C@H]4CC[C@H](N5CCOCC5)CC4)c3c2C1 [Compound I-234, (12S)-3-[[(1r,4r)-4-(morpholin-4-yl)cyclohexyl]oxy]-8-thia-4,6-diazatricyclo[7.4.0.0[2,7]]trideca-1(9),2(7),3,5-tetraene-12-carboxylic acid]",< 5
4,"CN(CC(=O)N1CCCC1)[C@H]1CC[C@H](Nc2ncnc3sc4c(c23)[C@@H](CCO)CC4)CC1 [Compound I-116, 2-(((1R,4r)-4-(((R)-5-(2-hydroxyethyl)-6,7-dihydro-5H-cyclopenta[4,5]thieno[2,3-d]pyrimidin-4-yl)amino)cyclohexyl)(methyl)amino)-1-(pyrrolidin-1-yl)ethanone]",< 5
5,"CN(CC(=O)N1CCCC1)[C@H]1CC[C@H](Nc2ncnc3sc4c(c23)[C@@H](CC(N)=O)CC4)CC1 [Compound I-123, 2-[(3R)-12-[(4-[methyl[2-oxo-2-(pyrrolidin-1-yl)ethyl]amino]cyclohexyl)amino]-7-thia-9,11-diazatricyclo[6.4.0.0[2,6]]dodeca-1(8),2(6),9,11-tetraen-3-yl]acetamide]",< 5
6,"CC(O)C[C@@H]1CCc2sc3ncnc(O[C@H]4CC[C@H](N5CCOCC5)CC4)c3c2C1 (stereo partly drawn) [Compound I-182, 1-((R)-4-(((1r,4R)-4-morpholinocyclohexyl)oxy)-5,6,7,8-tetrahydrobenzo[4,5]thieno[2,3-d]pyrimidin-6-yl)propan-2-ol]",< 5
7,"C[C@@H](O)C[C@H]1CCc2sc3ncnc(O[C@H]4CC[C@H](N5CCOCC5)CC4)c3c21 [Compound I-82, (R)-1-((R)-4-(((1r,4R)-4-morpholinocyclohexyl)oxy)-6,7-dihydro-5H-cyclopenta[4,5]thieno[2,3-d]pyrimidin-5-yl)propan-2-ol]",< 5
8,"NC(=O)C[C@H]1CCc2sc3ncnc(O[C@H]4CC[C@@H](N5CCNC(=O)C5)CC4)c3c21 [Compound I-157, 2-((R)-4-(((1s,4S)-4-(3-oxopiperazin-1-yl)cyclohexyl)oxy)-6,7-dihydro-5H-cyclopenta[4,5]thieno[2,3-d]pyrimidin-5-yl)acetamide]",< 5
9,"CC[C@H](C[C@H]1CCc2sc3ncnc(N[C@H]4CC[C@H](N(C)C)CC4)c3c21)OC [Compound I-147, (1r,4R)-N1-((R)-5-((R)-2-methoxybutyl)-6,7-dihydro-5H-cyclopenta[4,5]thieno[2,3-d]pyrimidin-4-yl)-N4,N4-dimethylcyclohexane-1,4-diamine]",< 5
10,"CN[C@H]1CC[C@H](Oc2ncnc3sc4c(c23)[C@@H](C[C@H]2NC(=O)NC2=O)CC4)CC1 [Compound I-159, (5R)-5-[[(3R)-12-[[4-(methylamino)cyclohexyl]oxy]-7-thia-9,11-diazatricyclo[6.4.0.0[2,6]]dodeca-1(8),2(6),9,11-tetraen-3-yl]methyl]imidazolidine-2,4-dione]",< 5
11,"CN(C)[C@H]1CC[C@H](Oc2ncnc3sc4c(c23)C(CCO)CC4)CC1 (stereo partly drawn) [Compound I-21, 2-(4-(((1r,4r)-4-(dimethylamino)cyclohexyl)oxy)-6,7-dihydro-5H-cyclopenta[4,5]thieno[2,3-d]pyrimidin-5-yl)ethanol]",< 5
12,"CC#CCOC[C@H]1CCc2sc3ncnc(O[C@H]4CC[C@H](N(C)C)CC4)c3c21 [Compound I-56, 4-[[(3S)-3-[(but-2-yn-1-yloxy)methyl]-7-thia-9,11-diazatricyclo[6.4.0.0[2,6]]dodeca-1(8),2(6),9,11-tetraen-12-yl]oxy]-N,N-dimethylcyclohexan-1-amine]",< 5
13,"CCCOC(=O)N1CCc2sc3ncnc(O[C@H]4CC[C@H](N(C)C)CC4)c3c2C1 [Compound I-184, propyl 3-[[4-(dimethylamino)cyclohexyl]oxy]-8-thia-4,6, 12-triazatricyclo[7.4.0.0[2,7]]trideca-1(9),2(7),3,5-tetraene-12-carboxylate]",< 5
14,"CN(C)[C@H]1CC[C@H](Oc2nc(Nc3ccc(N4CCNCC4)cc3)nc3sc4c(c23)C(CC(N)=O)CC4)CC1 (mixture of isomers) [Compound I-205, 2-(12-[[4-(dimethylamino)cyclohexyl]oxy]-10-[[4-(piperazin-1-yl)phenyl]amino]-7-thia-9, 11-diazatricyclo[6.4.0.0[2,6]]dodeca-1(12),2(6),8, 10-tetraen-3-yl)acetamide]",< 5
15,"OCC[C@H]1CCc2sc3ncnc(O[C@H]4CC[C@H](N5CCOCC5)CC4)c3c21 [Compound I-66, 2-[(3R)-12-[[4-(morpholin-4-yl)cyclohexyl]oxy]-7-thia-9,11-diazatricyclo[6.4.0.0[2,6]]dodeca-1(12),2(6),8,10-tetraen-3-yl]ethan-1-ol]",< 5
16,"NC(=O)C1CCc2sc3ncnc(N[C@H]4CC[C@H](N5CCOCC5)CC4)c3c2C1 (stereo partly drawn) [Compound I-203, 3-[[4-(morpholin-4-yl)cyclohexyl]amino]-8-thia-4,6-diazatricyclo[7.4.0.0[2,7]]trideca-1(9),2,4,6-tetraene-12-carboxamide]",< 5
17,"C=C[C@H](O)C[C@H]1CCc2sc3ncnc(O[C@H]4CC[C@](CC)(N(C)C)CC4)c3c21 [Compound I-124, (R)-1-((R)-4-(((1r,4R)-4-(dimethylamino)-4-ethylcyclohexyl)oxy)-6,7-dihydro-5H-cyclopenta[4,5]thieno[2,3-d]pyrimidin-5-yl)but-3-en-2-ol]",5 to 20
18,"CO[C@@H](C[C@H]1CCc2sc3ncnc(O[C@H]4CC[C@H](N(C)C)CC4)c3c21)C(N)=O [Compound I-78, (2S)-3-[(3R)-12-[[4-(dimethylamino)cyclohexyl]oxy]-7-thia-9,11-diazatricyclo[6.4.0.0[2,6]]dodeca-1(8),2(6),9,11-tetraen-3-yl]-2-methoxypropanamide]",< 5
19,"CC(=O)N1Cc2sc3ncnc(O[C@H]4CC[C@H](N5CCOCC5)CC4)c3c2C1 [Compound I-198, 1-(12-[[4-(morpholin-4-yl)cyclohexyl]oxy]-7-thia-4,9,11-triazatricyclo[6.4.0.0[2,6]]dodeca-1(12),2(6),8, 10-tetraen-4-yl)ethan-1-one]",20 to 50
20,"CCSCC1CCc2sc3ncnc(O[C@H]4CC[C@H](N(C)C)CC4)c3c21 (stereo partly drawn) [Compound I-39, 4-([3-[(ethylsulfanyl)methyl]-7-thia-9,11-diazatricyclo[6.4.0.0[2,6]]dodeca-1(12),2(6),8,10-tetraen-12-yl]oxy)-N,N-dimethylcyclohexan-1-amine]",< 5
21,"CN(C)[C@]1(C)CC[C@@H](Oc2ncnc3sc4c(c23)[C@@H](CC(N)=O)CC4)CC1 [Compound I-155, 2-[(3R)-12-[[4-(dimethylamino)-4-methylcyclohexyl]oxy]-7-thia-9,11-diazatricyclo[6.4.0.0[2,6]]dodeca-1(8),2(6),9,11-tetraen-3-yl]acetamide]",< 5
22,"CNC(=O)N1CCc2sc3ncnc(O[C@H]4CC[C@H](N(C)C)CC4)c3c2C1 [Compound I-169, 3-[[4-(dimethylamino)cyclohexyl]oxy]-N-methyl-8-thia-4,6,12-triazatricyclo[7.4.0.0[2,7]]trideca-1(9),2(7),3,5-tetraene-12-carboxamide]",< 5
23,"CN(C)[C@H]1CC[C@H](Oc2ncnc3sc4c(c23)[C@@H](CC(=O)Nc2ccc(F)cn2)CC4)CC1 [Compound I-37, 2-[(3R)-12-[[4-(dimethylamino)cyclohexyl]oxy]-7-thia-9,11-diazatricyclo[6.4.0.0[2,6]]-dodeca-1(8),2(6),9,11-tetraen-3-yl]-N-(5-fluoropyridin-2-yl)acetamide]",< 5
24,"CC[C@]1(N(C)C)CC[C@H](Oc2ncnc3sc4c(c23)[C@@H](C[C@H](C)O)CC4)CC1 [Compound I-103, (2S)-1-[(3R)-12-[[4-(dimethylamino)-4-ethylcyclohexyl]oxy]-7-thia-9,11-diazatricyclo[6.4.0.0[2,6]]dodeca-1(12),2(6),8,10-tetraen-3-yl]propan-2-ol]",5 to 20
25,"CN(C)[C@H]1CC[C@H](Oc2ncnc3sc4c(c23)C(CC#N)CC4)CC1 (stereo partly drawn) [Compound I-22, 2-(12-[[4-(dimethylamino)cyclohexyl]oxy]-7-thia-9,11-diazatricyclo[6.4.0.0[2,6]]dodeca-1(8),2(6),9,11-tetraen-3-yl)acetonitrile]",5 to 20
26,"CC[C@H](O)C[C@H]1CCc2sc3ncnc(O[C@H]4CC[C@H](N5CCOCC5)CC4)c3c21 [Compound I-64, (S)-1-((R)-4-(((1r,4R)-4-morpholinocyclohexyl)oxy)-6,7-dihydro-5H-cyclopenta[4,5]thieno[2,3-d]pyrimidin-5-yl)butan-2-ol]",< 5
27,"CN(C)[C@H]1CC[C@H](Oc2ncnc3sc4c(c23)CC(CCO)OC4)CC1 (stereo partly drawn) [Compound I-219, 2-(3-[[4-(dimethylamino)cyclohexyl]oxy]-1-oxa-8-thia-4,6-diazatricyclo[7.4.0.0[2,7]]trideca-1(9),2,4,6-tetraen-12-yl)ethan-1-ol]",< 5
